Test results: ChEMBL document CHEMBL5634079, “Development of novel celastrol-ligustrazine hybrids as potent peroxiredoxin 1 inhibitors against lung cancer” (Eur J Med Chem, 2023); call rule not given here
pIC50: −log10 of the molar value.

Assays:
Peroxiredoxin-1 = target: T1, Peroxiredoxin-1 (Homo sapiens, UniProt Q06830); assay: Inhibition of PRDX1 (unknown origin) in presence of cofactor A/cofactor B/NADPH incubated for 25 mins; details: for pIC50: read-out: IC50
T1 sequence (Q06830 whole entry): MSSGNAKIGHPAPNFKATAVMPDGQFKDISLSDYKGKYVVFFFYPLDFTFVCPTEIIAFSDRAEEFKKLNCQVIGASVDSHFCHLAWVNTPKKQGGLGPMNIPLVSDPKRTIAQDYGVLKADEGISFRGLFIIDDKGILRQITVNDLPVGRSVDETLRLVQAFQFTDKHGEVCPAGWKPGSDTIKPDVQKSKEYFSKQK

A549 [1] = assay: Antiproliferative activity against human A549 cells assessed as inhibition of cell growth incubated for 48 hrs by MTT assay; type: functional, cell-based; details: A549, 48 h
[2] = Antiproliferative activity against human LTEP-a2 cells assessed as inhibition of cell growth incubated for 48 hrs by MTT assay; type: functional, cell-based; details: LTEP-A2, 48 h
A549 [3] = assay: cells; details: Homo sapiens, A549, 48 h
Description: Antiproliferative activity against human A549 cells assessed as inhibition of cell growth incubated for 48 hrs in presence of ligustrazine by MTT assay

A549 [4] = assay: Inhibition of cell migration in human A549 cells assessed as reduction in wound area at 2 uM incubated for 24 hrs by inverted microscopic analysis; type: functional; set-up: scale not given: the % may be the effect or the level left
MDA-MB-231 [5] = assay: cells; details: Homo sapiens, MDA-MB-231, 48 h
Description: Antiproliferative activity against human MDA-MB-231 cells assessed as inhibition of cell growth incubated for 48 hrs in presence of ligustrazine by MTT assay

A549 [6] = assay: Inhibition of cell invasion in human A549 cells incubated for 12 to 48 hrs by crystal violet staining based microscopic analysis; type: functional; details: dose 2-4 µM, time 12-48 hrs
[7] = Antitumor activity against mouse Lewis lung carcinoma cell line implanted in C57BL/6J mouse assessed as tumor growth inhibition at 1 mg/kg, ip administered every day for 19 days; type: functional; details: 456 h, time 19 day, read-out: TGI
SK-HEP1 [8] = assay: Antiproliferative activity against human SK-HEP1 cells assessed as inhibition of cell growth incubated for 48 hrs by MTT assay; type: functional, cell-based; details: SK-HEP1, 48 h
A549 [9] = assay: Induction of apoptosis in human A549 cells assessed as late apoptotic cells at 2 uM incubated for 48 hrs by Annexin V-FITC and PI staining based flow cytometric analysis (reference value: 0.73%); type: functional
NCI-H1975 [10] = assay: Antiproliferative activity against human NCI-H1975 cells assessed as inhibition of cell growth incubated for 48 hrs by MTT assay; type: functional, cell-based; details: NCI-H1975, 48 h
[11] = Antiproliferative activity against human LTEP-a2 cells assessed as inhibition of cell growth incubated for 48 hrs in presence of ligustrazine by MTT assay; type: functional, cell-based; details: LTEP-A2, 48 h
[12] = Toxicity in C57BL/6J mouse implanted with mouse Lewis lung carcinoma cell line assessed as decrease in body weight at 0.5 to 1 mg/kg, ip administered every day for 19 days; type: organism-based; details: in vivo, 456 h, dose 0.5-1 mg/kg, time 19 day
A549 [13] = assay: Induction of apoptosis in human A549 cells assessed as viable cells at 2 uM incubated for 48 hrs by Annexin V-FITC and PI staining based flow cytometric analysis (reference value: 93.8%); type: functional; details: read-out: Activity
A549 [14] = assay: Induction of apoptosis in human A549 cells assessed as early apoptotic cells at 2 uM incubated for 48 hrs by Annexin V-FITC and PI staining based flow cytometric analysis (reference value: 0.76%); type: functional
SK-HEP1 [15] = assay: Antiproliferative activity against human SK-HEP1 cells assessed as inhibition of cell growth incubated for 48 hrs in presence of ligustrazine by MTT assay; type: functional, cell-based; details: SK-HEP1, 48 h
MDA-MB-231 [16] = assay: Antiproliferative activity against human MDA-MB-231 cells assessed as inhibition of cell growth incubated for 48 hrs by MTT assay; type: functional, cell-based; details: MDA-MB-231, 48 h
A549 [17] = assay: Induction of apoptosis in human A549 cells assessed as necrotic cells at 2 uM incubated for 48 hrs by Annexin V-FITC and PI staining based flow cytometric analysis (reference value: 4.68%); type: functional
NCI-H1975 [18] = assay: Antiproliferative activity against human NCI-H1975 cells assessed as inhibition of cell growth incubated for 48 hrs in presence of ligustrazine by MTT assay; type: functional, cell-based; details: NCI-H1975, 48 h
MDA-MB-231 [19] = assay: Antiproliferative activity against human MDA-MB-231 cells assessed as inhibition of cell growth incubated for 48 hrs in presence of celastrol by MTT assay; type: functional, cell-based; details: MDA-MB-231, 48 h
A549 [20] = assay: Antiproliferative activity against human A549 cells assessed as inhibition of cell growth incubated for 48 hrs in presence of celastrol by MTT assay; type: functional, cell-based; details: A549, 48 h
[21] = Antiproliferative activity against human LTEP-a2 cells assessed as inhibition of cell growth incubated for 48 hrs in presence of celastrol by MTT assay; type: functional, cell-based; details: LTEP-A2, 48 h
SK-HEP1 [22] = assay: Antiproliferative activity against human SK-HEP1 cells assessed as inhibition of cell growth incubated for 48 hrs in presence of celastrol by MTT assay; type: functional, cell-based; details: SK-HEP1, 48 h
NCI-H1975 [23] = assay: Antiproliferative activity against human NCI-H1975 cells assessed as inhibition of cell growth incubated for 48 hrs in presence of celastrol by MTT assay; type: functional, cell-based; details: NCI-H1975, 48 h

Row | SMILES | pIC50 (Peroxiredoxin-1) | pIC50 (A549 [1]) | pIC50 [2] | pIC50 (SK-HEP1 [8]) | pIC50 (NCI-H1975 [10]) | pIC50 (MDA-MB-231 [16]) | also measured
1 | CC1=C(OC(=O)C2CCOCC2)C(=O)C=C2C1=CC=C1[C@@]2(C)CC[C@@]2(C)[C@@H]3C[C@](C)(C(=O)NCc4nc(C)c(C)nc4C)CC[C@]3(C)CC[C@]12C | 5.81 | 5.37 | – | – | – | – | –
2 | CC1=C(O)C(=O)C=C2C1=CC=C1[C@@]2(C)CC[C@@]2(C)[C@@H]3C[C@](C)(C(=O)NCc4nc(C)c(C)nc4C)CC[C@]3(C)CC[C@]12C | 6.78 | 5.47 | – | – | – | – | –
3 | CC1=C(O)C(=O)C=C2C1=CC=C1[C@@]2(C)CC[C@@]2(C)[C@@H]3C[C@](C)(C(=O)O)CC[C@]3(C)CC[C@]12C [CELASTROL] | – | 5.03 | 4.92 | 5.00 | 5.22 | 5.31 | pIC50 (A549 [3]): 5.19; Activity (A549 [4]): 50%; pIC50 (MDA-MB-231 [5]): 5.31; inhibition (A549 [6]): Dose-Dependent Effect; inhibition in vivo at 1 mg/kg [7]: 71%; Activity (A549 [9]): 5.92%; pIC50 [11]: 5.02; Activity [12]: Non-Toxic; viability at 2 µM (A549 [13]): 85.6%; Activity (A549 [14]): 5.21%; pIC50 (SK-HEP1 [15]): 5.01; Activity (A549 [17]): 3.28%; pIC50 (NCI-H1975 [18]): 5.25
4 | CC(=O)OC1=C(C)C2=CC=C3[C@@](C)(CC[C@@]4(C)[C@@H]5C[C@](C)(C(=O)OCc6nc(C)c(C)nc6C)CC[C@]5(C)CC[C@]34C)C2=CC1=O | 6.32 | 5.28 | – | – | – | – | –
5 | CC1=C(O)C(=O)C=C2C1=CC=C1[C@@]2(C)CC[C@@]2(C)[C@@H]3C[C@](C)(C(=O)OCc4nc(C)c(C)nc4C)CC[C@]3(C)CC[C@]12C | 5.60 | 5.59 | – | – | – | – | –
6 | CC(=O)OC1=C(C)C2=CC=C3[C@@](C)(CC[C@@]4(C)[C@@H]5C[C@](C)(C(=O)NCc6nc(C)c(C)nc6C)CC[C@]5(C)CC[C@]34C)C2=CC1=O | 5.83 | 5.18 | – | – | – | – | –
7 | CC1=C(OC(=O)C2CC2)C(=O)C=C2C1=CC=C1[C@@]2(C)CC[C@@]2(C)[C@@H]3C[C@](C)(C(=O)NCc4nc(C)c(C)nc4C)CC[C@]3(C)CC[C@]12C | 6.62 | 5.59 | 5.13 | 5.57 | 5.50 | 5.22 | –
8 | CCCC(=O)OC1=C(C)C2=CC=C3[C@@](C)(CC[C@@]4(C)[C@@H]5C[C@](C)(C(=O)NCc6nc(C)c(C)nc6C)CC[C@]5(C)CC[C@]34C)C2=CC1=O | 6.55 | 5.81 | 5.22 | 5.56 | 5.83 | 5.44 | –
9 | CCC(=O)OC1=C(C)C2=CC=C3[C@@](C)(CC[C@@]4(C)[C@@H]5C[C@](C)(C(=O)NCc6nc(C)c(C)nc6C)CC[C@]5(C)CC[C@]34C)C2=CC1=O | 6.01 | 5.18 | – | – | – | – | –
10 | CC1=C(OC(=O)/C=C/c2ccccc2)C(=O)C=C2C1=CC=C1[C@@]2(C)CC[C@@]2(C)[C@@H]3C[C@](C)(C(=O)OCc4nc(C)c(C)nc4C)CC[C@]3(C)CC[C@]12C | 6.28 | 5.57 | 5.48 | 5.79 | 5.83 | 5.67 | –
11 | [O-][n+]1c(CBr)c(CBr)[n+]([O-])c2ccccc21 | 4.83 | – | – | – | – | – | –
12 | Cc1nc(C)c(C)nc1C [LIGUSTRAZINE] | – | < 4.70 | – | – | – | – | pIC50 (MDA-MB-231 [19]): 5.31; IC50 (Peroxiredoxin-1): Not Active; pIC50 (A549 [20]): 5.19; pIC50 [21]: 5.02; pIC50 (SK-HEP1 [22]): 5.01; pIC50 (NCI-H1975 [23]): 5.25
